The pEC50 is the EC50 on a negative log10 scale, so that one unit is a factor of ten.

The source of these data is patent publication US9499550B2 (BRISTOL-MYERS SQUIBB COMPANY, priority 2012, dated 2016).

Assay [1] concerns HCV genotype 1b (Con1) replicon in HUH-7 cells. Description: HCV replicon luciferase reporter assay, genotype 1b. It counts as cell-based. The following applies: Hepatitis C virus, Huh-7, 72 h, HCV genotype 1b replicon luciferase, 3 days incubation, read-out: LE_1b (EC50, range). In outline: (§1)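 Replicon inhibition for both genotypes was measured as Renilla luciferase signal (EnduRen, 7.5 μM final, 2 h) after 3-day, 37° C exposure of replicon-bearing HUH-7 cells in 4% FCS DMEM, 0.5% DMSO. The 1b construct carries S1179I; the 1a H77 construct carries P1496L and S2204I. Twenty-point, 3-fold dilutions were fitted four-parametrically for EC50, and CC50 was taken from multiplexed Cell Titer-Blue.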

Assay [2] concerns HCV genotype 1a (H77 strain) replicon in HUH-7 cells. Description: HCV replicon luciferase reporter assay, genotype 1a. It counts as cell-based. The following applies: Hepatitis C virus, Huh-7, 72 h, HCV genotype 1a replicon luciferase, 3 days incubation, read-out: LE_1a (EC50, range). A digest of the protocol: as §1
A general note: A replicon is a self-replicating genome or part of one, used to study replication in cells.

pEC50: −log10 of the molar value. Read-outs that look alike come from different tables or passages of the source.

With `COc1cnc(O[C@@H]2C[C@H]3C(=O)N[C@]4(C(=O)NS(=O)(=O)C5CCC5)C[C@H]4/C=C\CC[C@@H](C)C[C@@H](C)[C@H](NC(=O)OC(C)(C)C)C(=O)N3C2)c2ccccc12` [Compound 5352], the negative logarithm of the EC50 (pEC50) in assay [1] and in assay [2] was more than 8.26 each time.

On to `COc1cnc(O[C@@H]2C[C@H]3C(=O)N[C@]4(C(=O)NS(=O)(=O)C5CCC5)C[C@H]4/C=C\CC[C@H](C)C[C@@H](C)[C@H](NC(=O)OC(C)(C)C(F)(F)F)C(=O)N3C2)c2ccccc12` [Compound 5353, 1,1,1-trifluoro-2-methylpropan-2-yl((2R,6S,7R,9S,13aS,14aR,16aS,Z)-14a-((cyclobutylsulfonyl)carbamoyl)-2-((4-methoxyisoquinolin-1-yl)oxy)-7,9-dimethyl-5,16-dioxo-1,2,3,5,6,7,8,9,10,11,13a,14,14a,15,16,16a-hexadecahydrocyclopropa[e]pyrrolo[1,2-a][1,4]diazacyclopentadecin-6-yl)carbamate], for which the negative-log EC50 (pEC50) in assay [1] was more than 8.26; in assay [2], 6.99 to 8.32.

For the molecule `COc1cnc(O[C@@H]2C[C@H]3C(=O)N[C@]4(C(=O)NS(=O)(=O)C5CCC5)C[C@H]4/C=C\CC[C@@H](C)C[C@@H](C)[C@H](NC(=O)OC(C)(C)C(F)(F)F)C(=O)N3C2)c2ccccc12` [Compound 5354, 1,1,1-trifluoro-2-methylpropan-2-yl((2R,6S,7R,9R,13aS,14aR,16aS,Z)-14a-((cyclobutylsulfonyl)carbamoyl)-2-((4-methoxyisoquinolin-1-yl)oxy)-7,9-dimethyl-5,16-dioxo-1,2,3,5,6,7,8,9,10,11,13a,14,14a,15,16,16a-hexadecahydrocyclopropa[e]pyrrolo[1,2-a][1,4]diazacyclopentadecin-6-yl)carbamate], the pEC50 in assay [1] and in assay [2] was more than 8.26 each time.

In the case of `CCOc1cnc(O[C@@H]2C[C@H]3C(=O)N[C@]4(C(=O)NS(=O)(=O)C5(CF)CC5)C[C@H]4/C=C\CC[C@@H](C)C[C@@H](C)[C@H](NC(=O)OC(C)(C)C(C)(F)F)C(=O)N3C2)c2ccccc12` [Compound 5355], the pEC50 in assay [1] (GETYPE1B) and in assay [2] (GETYPE1A) was 8.30 to 9.00 throughout.

Consider `CCOc1ccc2c(O[C@@H]3C[C@H]4C(=O)N[C@]5(C(=O)NS(=O)(=O)C6CC6)C[C@H]5/C=C\CC[C@@H](C)C[C@@H](CC)[C@H](NC(=O)OC(C)(C)C(F)(F)F)C(=O)N4C3)nccc2c1` [Compound 5357, 1,1,1-trifluoro-2-methylpropan-2-yl((2R,6S,7R,9R,13aS,14aR,16aS,Z)-14a-((cyclopropylsulfonyl)carbamoyl)-2-((6-ethoxyisoquinolin-1-yl)oxy)-7-ethyl-9-methyl-5,16-dioxo-1,2,3,5,6,7,8,9,10,11,13a,14,14a,15,16,16a-hexadecahydrocyclopropa[e]pyrrolo[1,2-a][1,4]diazacyclopentadecin-6-yl)carbamate], for which the values for the pEC50 in assay [1] and in assay [2] were 9.00 to 9.29 and 8.30 to 9.00, respectively.

As for `CCOc1ccc2c(O[C@@H]3C[C@H]4C(=O)N[C@]5(C(=O)NS(=O)(=O)C6CC6)C[C@H]5/C=C\CC[C@@H](C)C[C@@H](CC)[C@H](NC(=O)OC(C)(C)C(C)(F)F)C(=O)N4C3)nccc2c1` [Compound 5359], the pEC50 in assay [1] and in assay [2] was 8.30 to 9.00 in each case.

As to `CCOc1ccc2c(O[C@@H]3C[C@H]4C(=O)N[C@]5(C(=O)NS(=O)(=O)C6CC6)C[C@H]5/C=C\CC[C@@H](C)C[C@@H](CC)[C@H](NC(=O)OC(C)(C)C)C(=O)N4C3)nccc2c1` [Compound 5361, tert-butyl ((2R,6S,7R,9R,13aS,14aR,16aS,Z)-14a-((cyclopropylsulfonyl)carbamoyl)-2-((6-ethoxyisoquinolin-1-yl)oxy)-7-ethyl-9-methyl-5,16-dioxo-1,2,3,5,6,7,8,9,10,11,13a,14,14a,15,16,16a-hexadecahydrocyclopropa[e]pyrrolo[1,2-a][1,4]diazacyclopentadecin-6-yl)carbamate], the pEC50 in assay [1] and in assay [2] was 9.00 to 9.29 throughout.

For the molecule `CCOc1ccc2c(O[C@@H]3C[C@H]4C(=O)N[C@]5(C(=O)NS(=O)(=O)C6(CF)CC6)C[C@H]5/C=C\CC[C@@H](C)C[C@@H](C)[C@H](NC(=O)OC(C)(C)C(F)(F)F)C(=O)N4C3)nccc2c1` [Compound 5363, 1,1,1-trifluoro-2-methylpropan-2-yl((2R,6S,7R,9R,13aS,14aR,16aS,Z)-2-((6-ethoxyisoquinolin-1-yl)oxy)-14a-(((1-(fluoromethyl)cyclopropyl)sulfonyl)carbamoyl)-7,9-dimethyl-5,16-dioxo-1,2,3,5,6,7,8,9,10,11,13a,14,14a,15,16,16a-hexadecahydrocyclopropa[e]pyrrolo[1,2-a][1,4]diazacyclopentadecin-6-yl)carbamate], the pEC50 is 9.00 to 9.29 in assay [1] and 8.30 to 9.00 in assay [2].

Turning to `CCOc1ccc2c(O[C@@H]3C[C@H]4C(=O)N[C@]5(C(=O)NS(=O)(=O)C6(CF)CC6)C[C@H]5/C=C\CC[C@@H](C)C[C@@H](C)[C@H](NC(=O)OC(C)(C)C(C)(F)F)C(=O)N4C3)nccc2c1` [Compound 5365, 3,3-difluoro-2-methylbutan-2-yl((2R,6S,7R,9R,13aS,14aR,16aS,Z)-2-((6-ethoxyisoquinolin-1-yl)oxy)-14a-(((1-(fluoromethyl)cyclopropyl)sulfonyl)carbamoyl)-7,9-dimethyl-5,16-dioxo-1,2,3,5,6,7,8,9,10,11,13a,14,14a,15,16,16a-hexadecahydrocyclopropa[e]pyrrolo[1,2-a][1,4]diazacyclopentadecin-6-yl)carbamate], the pEC50 was 9.00 to 9.29 in assay [1] and 8.30 to 9.00 in assay [2].

As to `CCOc1ccc2c(O[C@@H]3C[C@H]4C(=O)N[C@]5(C(=O)NS(=O)(=O)C6(CF)CC6)C[C@H]5/C=C\CC[C@@H](C)C[C@@H](C)[C@H](NC(=O)OC(C)(C)C)C(=O)N4C3)nccc2c1` [Compound 5367, tert-butyl ((2R,6S,7R,9R,13aS,14aR,16aS,Z)-2-((6-ethoxyisoquinolin-1-yl)oxy)-14a-(((1-(fluoromethyl)cyclopropyl)sulfonyl)carbamoyl)-7,9-dimethyl-5,16-dioxo-1,2,3,5,6,7,8,9,10,11,13a,14,14a,15,16,16a-hexadecahydrocyclopropa[e]pyrrolo[1,2-a][1,4]diazacyclopentadecin-6-yl)carbamate], the pEC50 in assay [1] was 9.30 to 10.00; in assay [2], 9.00 to 9.29.

Consider `CCOc1ccc2c(O[C@@H]3C[C@H]4C(=O)N[C@]5(C(=O)NS(=O)(=O)C6(C)CC6)C[C@H]5/C=C\CC[C@@H](C)C[C@@H](CC)[C@H](NC(=O)OC(C)(C)C(F)(F)F)C(=O)N4C3)nccc2c1` [Compound 5369, 1,1,1-trifluoro-2-methylpropan-2-yl((2R,6S,7R,9R,13aS,14aR,16aS,Z)-2-((6-ethoxyisoquinolin-1-yl)oxy)-7-ethyl-9-methyl-14a-(((1-methylcyclopropyl)sulfonyl)carbamoyl)-5,16-dioxo-1,2,3,5,6,7,8,9,10,11,13a,14,14a,15,16,16a-hexadecahydrocyclopropa[e]pyrrolo[1,2-a][1,4]diazacyclopentadecin-6-yl)carbamate], for which the pEC50 in assay [1] and in assay [2] was 8.30 to 9.00 throughout.

For the molecule `CCOc1ccc2c(O[C@@H]3C[C@H]4C(=O)N[C@]5(C(=O)NS(=O)(=O)C6(C)CC6)C[C@H]5/C=C\CC[C@@H](C)C[C@@H](CC)[C@H](NC(=O)OC(C)(C)C(C)(F)F)C(=O)N4C3)nccc2c1` [Compound 5371, 3,3-difluoro-2-methylbutan-2-yl((2R,6S,7R,9R,13aS,14aR,16aS,Z)-2-((6-ethoxyisoquinolin-1-yl)oxy)-7-ethyl-9-methyl-14a-(((1-methylcyclopropyl)sulfonyl)carbamoyl)-5,16-dioxo-1,2,3,5,6,7,8,9,10,11,13a,14,14a,15,16,16a-hexadecahydrocyclopropa[e]pyrrolo[1,2-a][1,4]diazacyclopentadecin-6-yl)carbamate], the results for the pEC50 in assay [1] and in assay [2] were 9.00 to 9.29 and 8.30 to 9.00, respectively.

For the molecule `CCOc1ccc2c(O[C@@H]3C[C@H]4C(=O)N[C@]5(C(=O)NS(=O)(=O)C6(C)CC6)C[C@H]5/C=C\CC[C@@H](C)C[C@@H](CC)[C@H](NC(=O)OC(C)(C)C)C(=O)N4C3)nccc2c1` [Compound 5373, tert-butyl ((2R,6S,7R,9R,13aS,14aR,16aS,Z)-2-((6-ethoxyisoquinolin-1-yl)oxy)-7-ethyl-9-methyl-14a-(((1-methylcyclopropyl)sulfonyl)carbamoyl)-5,16-dioxo-1,2,3,5,6,7,8,9,10,11,13a,14,14a,15,16,16a-hexadecahydrocyclopropa[e]pyrrolo[1,2-a][1,4]diazacyclopentadecin-6-yl)carbamate], the negative logarithm of the EC50 (pEC50) is 9.00 to 9.29 in assay [1] and 8.30 to 9.00 in assay [2].

As for `COc1cc2ccnc(O[C@@H]3C[C@H]4C(=O)N[C@]5(C(=O)NS(=O)(=O)C6(C)CC6)C[C@H]5/C=C\CC[C@@H](C)C[C@@H](C)[C@H](NC(=O)OC(C)(C)C(F)(F)F)C(=O)N4C3)c2cc1OC` [Compound 5375, 1,1,1-trifluoro-2-methylpropan-2-yl((2R,6S,7R,9R,13aS,14aR,16aS,Z)-2-((6,7-dimethoxyisoquinolin-1-yl)oxy)-7,9-dimethyl-14a-(((1-methylcyclopropyl)sulfonyl)carbamoyl)-5,16-dioxo-1,2,3,5,6,7,8,9,10,11,13a,14,14a,15,16,16a-hexadecahydrocyclopropa[e]pyrrolo[1,2-a][1,4]diazacyclopentadecin-6-yl)carbamate], the pEC50 in assay [1] is 9.00 to 9.29; in assay [2], 8.30 to 9.00.
